Assay results reported in ChEMBL document CHEMBL5096150, “Development and Therapeutic Potential of NUAKs Inhibitors” (J Med Chem, 2021).

How the values were obtained:
Aurora kinase C = target: T1, Aurora kinase C (Homo sapiens, UniProt Q9UQB9); experiment: Inhibition of Aurora C (unknown origin)
T1 sequence (Q9UQB9 whole entry): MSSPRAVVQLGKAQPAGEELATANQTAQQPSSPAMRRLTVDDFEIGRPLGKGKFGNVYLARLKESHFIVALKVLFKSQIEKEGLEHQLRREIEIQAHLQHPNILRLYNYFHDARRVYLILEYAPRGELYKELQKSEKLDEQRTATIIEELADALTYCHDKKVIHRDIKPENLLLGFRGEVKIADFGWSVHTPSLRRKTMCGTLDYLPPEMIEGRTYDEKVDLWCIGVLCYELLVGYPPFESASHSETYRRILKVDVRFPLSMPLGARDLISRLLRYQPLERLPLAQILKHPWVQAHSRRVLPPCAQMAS

[1] = target: T2, NUAK family SNF1-like kinase 1 (Homo sapiens, UniProt O60285); experiment: Inhibition of NUAK1 in HEK293 cells assessed as effect on MYPT1 phosphorylation at Ser445 incubated for 3 mins by immunoblotting analysis; assay type: cell-based
T2 sequence (O60285 whole entry): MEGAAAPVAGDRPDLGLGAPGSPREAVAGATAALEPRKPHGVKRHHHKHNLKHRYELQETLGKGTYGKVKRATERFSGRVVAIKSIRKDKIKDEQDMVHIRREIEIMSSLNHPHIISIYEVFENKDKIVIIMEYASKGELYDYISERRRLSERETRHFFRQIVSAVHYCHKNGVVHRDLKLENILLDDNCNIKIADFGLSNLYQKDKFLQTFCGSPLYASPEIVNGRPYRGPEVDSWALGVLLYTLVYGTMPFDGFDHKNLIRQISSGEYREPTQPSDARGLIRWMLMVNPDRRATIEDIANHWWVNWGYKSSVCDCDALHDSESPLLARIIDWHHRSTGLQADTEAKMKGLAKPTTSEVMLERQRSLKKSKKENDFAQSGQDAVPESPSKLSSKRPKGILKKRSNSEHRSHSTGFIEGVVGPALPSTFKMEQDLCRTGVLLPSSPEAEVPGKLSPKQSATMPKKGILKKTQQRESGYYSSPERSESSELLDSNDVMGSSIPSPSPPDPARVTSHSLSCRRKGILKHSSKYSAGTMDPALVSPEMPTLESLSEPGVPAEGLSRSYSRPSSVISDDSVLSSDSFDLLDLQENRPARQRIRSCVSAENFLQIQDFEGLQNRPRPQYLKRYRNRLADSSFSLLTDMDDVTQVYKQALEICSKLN

Aurora kinase B = Aurora kinase B (Homo sapiens, UniProt Q96GD4); experiment: Inhibition of Aurora B (unknown origin)
[2] = target: T2, NUAK family SNF1-like kinase 1; experiment: Inhibition of N-terminal GST-tagged wild type human NUAK1 expressed in Escherichia coli DH5alpha incubated for 30 mins in presence of gamma-[32P]ATP by cerenkov counting analysis
[3] = target: Cyclin-dependent kinase 4 (Homo sapiens) (UniProt P11802); experiment: Inhibition of CDK4 (unknown origin)
[4] = target: Proto-oncogene tyrosine-protein kinase receptor Ret (Homo sapiens, UniProt P07949); experiment: Inhibition of RET (unknown origin)
[5] = target: T2, NUAK family SNF1-like kinase 1; experiment: Inhibition of NUAK1 (unknown origin)
[6] = target: T3, NUAK family SNF1-like kinase 2 (Homo sapiens, UniProt Q9H093); experiment: Inhibition of NUAK2 (unknown origin)
T3 sequence (Q9H093 whole entry): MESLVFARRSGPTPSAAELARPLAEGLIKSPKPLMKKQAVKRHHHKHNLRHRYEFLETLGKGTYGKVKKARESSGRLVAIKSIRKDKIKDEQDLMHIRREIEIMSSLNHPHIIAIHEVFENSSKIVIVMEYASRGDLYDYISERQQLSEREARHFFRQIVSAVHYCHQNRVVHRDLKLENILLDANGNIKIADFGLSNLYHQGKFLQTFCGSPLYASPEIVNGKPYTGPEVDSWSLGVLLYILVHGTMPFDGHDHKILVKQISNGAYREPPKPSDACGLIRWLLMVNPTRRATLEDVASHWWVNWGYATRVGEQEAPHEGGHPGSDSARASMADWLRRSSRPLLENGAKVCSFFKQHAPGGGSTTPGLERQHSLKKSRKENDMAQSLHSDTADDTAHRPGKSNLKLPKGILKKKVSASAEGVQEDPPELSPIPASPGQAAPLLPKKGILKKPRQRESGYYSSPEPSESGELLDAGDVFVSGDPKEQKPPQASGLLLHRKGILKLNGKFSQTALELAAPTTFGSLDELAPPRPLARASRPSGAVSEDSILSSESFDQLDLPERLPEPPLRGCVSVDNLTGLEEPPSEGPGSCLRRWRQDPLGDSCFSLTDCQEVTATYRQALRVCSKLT

[7] = Inhibition of N-terminal GST-tagged human NUAK1 A195T mutant expressed in Escherichia coli DH5alpha incubated for 30 mins in presence of gamma-[32P]ATP by cerenkov counting analysis
[8] = target: T4, Insulin-like growth factor 1 receptor (Homo sapiens, UniProt P08069); experiment: Inhibition of human IGF1R expressed in mouse IGF1R knockout MEF cells; assay type: cell-based
[9] = target: T4, Insulin-like growth factor 1 receptor; experiment: Binding affinity to human IGF1R expressed in mouse IGF1R knockout MEF cells assessed as dissociation constant; assay type: cell-based
Insulin receptor [10] = target: T5, Insulin receptor (Homo sapiens, UniProt P06213); experiment: Inhibition of human InsR expressed in mouse IGF1R knockout MEF cells; assay type: cell-based
Insulin receptor [11] = target: T5, Insulin receptor; experiment: Binding affinity to human InsR expressed in mouse IGF1R knockout MEF cells assessed as dissociation constant; assay type: cell-based
[12] = target: T6, NUAK family SNF1-like kinase 1 (Homo sapiens) (UniProt O60285); experiment: Inhibition of NUAK1 (unknown origin) at 0.10 uM relative to control; settings: dose 0.1 µM
T6 sequence (whole entry): T2 sequence (O60285 whole entry)

[13] = target: T6, NUAK family SNF1-like kinase 1 (Homo sapiens); experiment: Inhibition of NUAK1 (unknown origin) at 1 uM relative to control
[14] = target: T6, NUAK family SNF1-like kinase 1 (Homo sapiens); experiment: Inhibition of NUAK1 (unknown origin) at 0.01 uM relative to control

T4 sequence (P08069 31-736 limits assumed): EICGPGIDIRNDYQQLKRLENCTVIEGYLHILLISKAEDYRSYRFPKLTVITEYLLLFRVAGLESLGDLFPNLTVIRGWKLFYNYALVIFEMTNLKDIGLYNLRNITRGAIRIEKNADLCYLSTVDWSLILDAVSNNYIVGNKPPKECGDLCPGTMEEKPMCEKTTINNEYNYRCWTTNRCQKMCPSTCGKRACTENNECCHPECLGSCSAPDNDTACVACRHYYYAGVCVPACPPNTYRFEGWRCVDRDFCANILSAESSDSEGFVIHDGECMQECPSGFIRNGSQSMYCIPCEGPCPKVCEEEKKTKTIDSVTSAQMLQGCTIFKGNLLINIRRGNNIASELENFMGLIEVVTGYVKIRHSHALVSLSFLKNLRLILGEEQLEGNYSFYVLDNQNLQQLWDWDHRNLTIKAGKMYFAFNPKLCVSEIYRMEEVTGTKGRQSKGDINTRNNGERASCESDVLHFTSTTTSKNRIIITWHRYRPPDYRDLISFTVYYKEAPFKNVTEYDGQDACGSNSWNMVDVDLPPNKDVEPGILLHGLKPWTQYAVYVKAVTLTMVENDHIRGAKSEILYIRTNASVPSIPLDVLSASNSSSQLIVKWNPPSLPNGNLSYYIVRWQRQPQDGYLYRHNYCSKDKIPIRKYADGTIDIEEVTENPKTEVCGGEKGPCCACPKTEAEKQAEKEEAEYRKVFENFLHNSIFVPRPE
T4 sequence (P08069 741-1367 limits assumed): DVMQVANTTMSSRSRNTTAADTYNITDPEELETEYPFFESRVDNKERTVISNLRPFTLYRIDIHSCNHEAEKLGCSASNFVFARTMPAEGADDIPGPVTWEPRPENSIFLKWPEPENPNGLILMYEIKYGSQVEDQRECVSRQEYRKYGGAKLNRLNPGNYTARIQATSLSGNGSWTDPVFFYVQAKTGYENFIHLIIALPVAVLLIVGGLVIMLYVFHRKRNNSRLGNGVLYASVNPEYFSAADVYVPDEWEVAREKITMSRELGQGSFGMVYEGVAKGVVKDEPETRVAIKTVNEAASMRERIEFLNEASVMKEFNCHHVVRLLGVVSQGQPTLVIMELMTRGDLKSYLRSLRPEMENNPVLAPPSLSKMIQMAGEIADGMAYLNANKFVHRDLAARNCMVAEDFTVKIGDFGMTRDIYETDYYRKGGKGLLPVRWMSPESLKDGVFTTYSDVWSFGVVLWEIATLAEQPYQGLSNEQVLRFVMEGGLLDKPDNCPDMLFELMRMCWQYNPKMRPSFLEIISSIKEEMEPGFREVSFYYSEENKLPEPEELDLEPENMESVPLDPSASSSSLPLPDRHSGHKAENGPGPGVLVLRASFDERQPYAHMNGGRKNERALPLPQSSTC
T5 sequence (P06213 28-758 limits assumed): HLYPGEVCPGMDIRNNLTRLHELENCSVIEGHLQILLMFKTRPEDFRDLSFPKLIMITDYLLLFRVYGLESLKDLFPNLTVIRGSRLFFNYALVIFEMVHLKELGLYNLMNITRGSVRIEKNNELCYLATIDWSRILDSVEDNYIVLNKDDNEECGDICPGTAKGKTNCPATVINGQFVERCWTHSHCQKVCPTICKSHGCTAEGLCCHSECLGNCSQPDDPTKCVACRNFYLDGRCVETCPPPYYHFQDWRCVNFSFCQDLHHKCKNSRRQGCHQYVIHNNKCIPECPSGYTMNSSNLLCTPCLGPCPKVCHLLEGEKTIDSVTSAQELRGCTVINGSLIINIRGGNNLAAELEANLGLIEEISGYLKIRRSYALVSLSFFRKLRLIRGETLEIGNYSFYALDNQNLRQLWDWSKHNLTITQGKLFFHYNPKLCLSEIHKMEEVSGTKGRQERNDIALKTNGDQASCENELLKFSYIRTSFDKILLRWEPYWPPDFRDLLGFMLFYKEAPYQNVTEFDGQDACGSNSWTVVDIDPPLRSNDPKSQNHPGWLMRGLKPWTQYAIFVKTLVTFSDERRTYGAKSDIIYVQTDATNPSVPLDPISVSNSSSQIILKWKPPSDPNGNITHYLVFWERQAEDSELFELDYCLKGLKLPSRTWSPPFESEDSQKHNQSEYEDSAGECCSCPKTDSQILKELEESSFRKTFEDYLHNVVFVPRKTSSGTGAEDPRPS
T5 sequence (P06213 763-1382 limits assumed): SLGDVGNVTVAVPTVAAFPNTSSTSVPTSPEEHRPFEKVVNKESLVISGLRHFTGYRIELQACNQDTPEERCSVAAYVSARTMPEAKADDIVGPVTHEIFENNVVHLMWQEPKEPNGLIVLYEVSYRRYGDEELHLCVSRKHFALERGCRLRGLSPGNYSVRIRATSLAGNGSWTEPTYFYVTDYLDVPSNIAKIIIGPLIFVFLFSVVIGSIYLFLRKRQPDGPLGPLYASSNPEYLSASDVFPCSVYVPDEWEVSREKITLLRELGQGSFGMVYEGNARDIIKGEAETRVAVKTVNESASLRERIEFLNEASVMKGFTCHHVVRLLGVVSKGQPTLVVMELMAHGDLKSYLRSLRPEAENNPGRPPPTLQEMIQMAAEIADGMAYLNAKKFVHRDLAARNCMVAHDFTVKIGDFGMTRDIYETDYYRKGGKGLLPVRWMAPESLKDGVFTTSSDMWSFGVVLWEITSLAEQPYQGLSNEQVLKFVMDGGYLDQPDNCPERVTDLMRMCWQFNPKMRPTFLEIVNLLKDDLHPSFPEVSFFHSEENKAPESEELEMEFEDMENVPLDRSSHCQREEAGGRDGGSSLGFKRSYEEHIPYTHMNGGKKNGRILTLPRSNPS
Sequence of Proto-oncogene tyrosine-protein kinase receptor Ret (P07949 whole entry): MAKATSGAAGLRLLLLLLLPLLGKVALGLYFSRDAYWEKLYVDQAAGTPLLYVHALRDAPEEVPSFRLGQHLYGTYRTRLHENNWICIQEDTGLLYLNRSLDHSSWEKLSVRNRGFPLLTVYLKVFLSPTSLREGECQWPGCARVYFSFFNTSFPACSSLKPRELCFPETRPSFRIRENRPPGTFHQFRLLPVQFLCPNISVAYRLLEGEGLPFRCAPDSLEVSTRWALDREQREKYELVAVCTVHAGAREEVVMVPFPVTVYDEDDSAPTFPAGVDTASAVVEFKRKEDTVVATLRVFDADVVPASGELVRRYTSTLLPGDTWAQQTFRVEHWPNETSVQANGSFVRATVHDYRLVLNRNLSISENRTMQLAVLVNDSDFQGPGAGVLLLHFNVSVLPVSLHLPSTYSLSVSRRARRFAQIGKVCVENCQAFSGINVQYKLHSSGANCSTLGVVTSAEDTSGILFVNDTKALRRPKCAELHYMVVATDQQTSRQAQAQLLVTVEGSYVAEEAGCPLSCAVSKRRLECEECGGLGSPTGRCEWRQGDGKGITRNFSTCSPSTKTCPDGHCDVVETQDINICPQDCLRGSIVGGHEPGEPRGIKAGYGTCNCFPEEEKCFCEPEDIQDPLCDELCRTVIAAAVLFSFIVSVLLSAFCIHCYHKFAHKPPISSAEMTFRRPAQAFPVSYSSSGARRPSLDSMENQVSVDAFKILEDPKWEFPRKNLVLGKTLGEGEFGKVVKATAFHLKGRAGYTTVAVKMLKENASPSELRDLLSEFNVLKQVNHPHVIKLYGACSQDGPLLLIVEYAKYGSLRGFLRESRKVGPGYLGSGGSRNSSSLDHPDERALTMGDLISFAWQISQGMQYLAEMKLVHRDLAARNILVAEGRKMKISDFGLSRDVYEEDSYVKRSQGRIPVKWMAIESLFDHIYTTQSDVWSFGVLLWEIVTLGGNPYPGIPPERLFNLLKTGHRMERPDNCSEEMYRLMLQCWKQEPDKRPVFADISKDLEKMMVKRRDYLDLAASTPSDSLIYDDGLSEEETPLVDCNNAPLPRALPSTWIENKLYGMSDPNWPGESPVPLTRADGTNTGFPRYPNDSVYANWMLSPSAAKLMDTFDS
Sequence of Cyclin-dependent kinase 4 (Homo sapiens) (P11802 whole entry): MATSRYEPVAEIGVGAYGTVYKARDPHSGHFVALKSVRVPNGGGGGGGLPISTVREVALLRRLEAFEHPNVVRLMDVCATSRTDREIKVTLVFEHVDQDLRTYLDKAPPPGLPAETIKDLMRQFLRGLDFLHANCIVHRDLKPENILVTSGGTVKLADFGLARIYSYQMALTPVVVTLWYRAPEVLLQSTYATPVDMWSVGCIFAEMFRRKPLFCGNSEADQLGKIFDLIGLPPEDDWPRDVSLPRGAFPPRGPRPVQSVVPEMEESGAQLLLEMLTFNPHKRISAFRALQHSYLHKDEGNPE
Sequence of Aurora kinase B (Q96GD4 whole entry): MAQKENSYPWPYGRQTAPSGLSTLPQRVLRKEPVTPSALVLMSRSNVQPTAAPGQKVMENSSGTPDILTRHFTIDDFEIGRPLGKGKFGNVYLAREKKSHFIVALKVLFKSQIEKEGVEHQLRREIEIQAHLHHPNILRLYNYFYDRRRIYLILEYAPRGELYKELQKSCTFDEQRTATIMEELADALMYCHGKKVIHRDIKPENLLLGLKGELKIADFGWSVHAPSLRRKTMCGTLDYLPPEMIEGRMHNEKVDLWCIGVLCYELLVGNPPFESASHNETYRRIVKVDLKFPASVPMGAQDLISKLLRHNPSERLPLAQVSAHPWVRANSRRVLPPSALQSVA

Structure (SMILES): CN1C(=O)c2cc3ccccc3cc2N(C)c2nc(Nc3cnn(C4CCNCC4)c3)ncc21
- IC50 (Aurora kinase C): 120 nM
- IC50 [1]: 10000 nM
- IC50 (Aurora kinase B): 54 nM

Structure (SMILES): Cc1cc(Nc2ncc3c(n2)N(C)c2ccccc2C(=O)N3C)ccc1C(=O)N1CCN(C)CC1
- IC50 [2]: 6 nM

Structure (SMILES): CC(C)(C)NS(=O)(=O)c1cccc(Nc2nc(Nc3cnn(C4CCNCC4)c3)ncc2Cl)c1
- IC50 [2]: 67 nM

Structure (SMILES): C=CC(=O)Nc1cccc(Oc2nc(Nc3ccc(N4CCN(C)CC4)cc3)nc3[nH]cnc23)c1
- IC50 [2]: 33 nM

Structure (SMILES): CN1CCN(c2ccc(Nc3ncc4cc(C#N)c(=O)n(C5CCCC5)c4n3)cc2)CC1 [NARAZACICLIB]
- IC50 [3]: 3.9 nM
- IC50 [4]: 9.2 nM

Structure (SMILES): Fc1ccc(Cn2cnc3cc(Cl)c(Nc4cc(C5CC5)[nH]n4)nc32)cc1
- IC50 [5]: 34.9 nM

Structure (SMILES): O=C(NCCCNc1nc(Nc2cccc(NC(=O)N3CCCC3)c2)ncc1I)c1cccs1 [BX-795]
- IC50 [5]: 5 nM

Structure (SMILES): O=C(NCCCNc1nc(Nc2cccc(CN3CCOCC3)c2)ncc1C1CC1)C1CCC1
- IC50 [6]: 2600 nM

Structure (SMILES): Cc1ccc2c(c1)C(=O)N(C)c1cnc(Nc3cnn(C4CCNCC4)c3)nc1N2C
- IC50 [2]: 7 nM

Structure (SMILES): CCC(=O)Nc1cccc(Oc2nc(Nc3ccc(N4CCN(C)CC4)cc3OC)ncc2Cl)c1
- IC50 [2]: 1.5 nM

Structure (SMILES): Cc1ccc2c(c1)C(=O)N(C)c1cnc(Nc3ccc4c(c3)NC(=O)CC4)nc1N2C
- IC50 [7]: 2000 nM
- IC50 [2]: 15 nM

Structure (SMILES): COCCN1CCN(CCn2ccc(Nc3ncc4c(n3)C(C)Cc3nn(C)c(-c5ccccc5)c3-4)n2)CC1 (stereo not drawn)
- IC50 [8]: 1 nM
- IC50 [5]: 411 nM
- Kd [9]: 9 nM
- IC50 (Insulin receptor [10]): 1 nM
- Kd (Insulin receptor [11]): 12 nM

Structure (SMILES): COc1cccc(OCCCN)c1-c1cc(Nc2cnc(C#N)cn2)n[nH]1 [PREXASERTIB]
- IC50 [5]: 64 nM

Structure (SMILES): C[C@@H](O)[C@@H](C)Oc1nc(Nc2ccc([S@](=N)(=O)C3CC3)cc2)ncc1C(F)(F)F [RONICICLIB]
- IC50 [5]: < 10 nM

Structure (SMILES): Cc1cc(Nc2nc(NC(C)c3ccc(F)cc3)c(C#N)cc2F)n[nH]1 (stereo not drawn)
- inhibition [12]: 6%
- inhibition [13]: 3%
- inhibition [14]: 35%

Structure (SMILES): C=CC(=O)Nc1cccc(Oc2nc(Nc3ccc(N4CCN(C)CC4)cc3OC)ncc2Cl)c1
- IC50 [2]: 25 nM

Structure (SMILES): Cc1nc(Nc2cnn(C3CCNCC3)c2)nc2c1N(C)C(=O)c1ccccc1N2C
- IC50 [2]: 17 nM

Structure (SMILES): CCCC(=O)Nc1cccc(Oc2nc(Nc3ccc(N4CCN(C)CC4)cc3OC)ncc2I)c1
- IC50 [6]: 126 nM
